Entries after “also recorded” stand apart in the source; their conditions may differ. Like-named read-outs stand apart in the source and are kept apart here.
How the values were obtained:
[1] = tested on: TynA-FeaR system; experiment: microbe, parasite or virus in culture; conditions: for EC50 / fold induction at 1250 µM: Escherichia coli; for EC50: read-out: KA (half maximal constant); for fold induction at 1250 µM: read-out: fold induction of the reporter; for Fmax / Fmin / n (Hill coefficient): wild-type TynA and FeaR, pCX008, pHJY022
Procedure: To develop sensors for aromatic amines, the TynA-FeaR system was first characterized in EcN. A sensor plasmid was constructed, which consisted of constitutively expressed TynA and FeaR from E. coli MG1655, and a reporter plasmid, which consisted of GFP under the control of PtynA (see e.g., FIG. 3B). […] Next, the sensitivity and selectivity to different ligands was characterized.
For fluorescence-based quantification, single colonies were transferred to 5 mL LB medium (VWR, Radnor, Pa., USA) in 14 mL round bottom tubes and incubated overnight at 250 rpm and 37° C. Unless otherwise specified, experimental cultures were prepared by diluting overnight cultures 100× into 0.6 mL M9 minimal medium supplemented with 1 mM MgSO4, […]), and 2% w/v glycerol as well as the respective ligands (DA, PEA, Tyra, and Trypta) in 2 mL 96-deep well plates. Cultures were grown for 24 h at 37° C. and 250 rpm. After 5 h and 24 h of incubation, samples were obtained from the cultures for flow cytometry analysis.
Flow cytometry was performed as previously described. Culture samples were collected and diluted to a final OD600 of ˜0.005-0.01 in […] filtered phosphate-buffered saline supplemented with 2 mg/ml kanamycin in 96-well assay microplates (U-bottom, REF-353910 from BD Biosciences, San Jose, Calif., USA). The fluorescence of the samples was measured using a Millipore Guava EasyCyte High Throughput flow cytometer with a 488 nm excitation laser and 512/18 nm emission filter. Cytometry data was gated by forward and side scatter. FlowJo (TreeStar Inc.) was used to obtain the arithmetic mean of the fluorescence distribution. The averages of the arithmetic means were calculated from three biological replicates. The average fluorescence of the non-fluorescent wild-type cell was subtracted from each sample to obtain the final fluorescence (au) values (Equation 2). To obtain the relative fluorescence in FIG. 6A-FIG. 6C, fluorescence values for each variant were normalized to the fluorescence of the wild-type sensor using Equation 3.
The Hill equation (Equations 4 and 5) was used to fit lines to the fluorescence data. The model was fit to the experimentally collected data by minimizing the root mean square error (RMSE; Equation 6).

[2] = tested on: wild-type TynA with A81P FeaR; experiment: microbe, parasite or virus in culture; type: cell-based, E. coli MG1655; conditions: for EC50: Escherichia coli, read-out: KA (half maximal constant), wild-type TynA + A81P FeaR
Procedure: (§1) Flow cytometry was performed as previously described. […] Cytometry data was gated by forward and side scatter.

[3] = tested on: wild-type TynA and A81L FeaR; experiment: microbe, parasite or virus in culture; type: cell-based, E. coli MG1655; conditions: for EC50: Escherichia coli, read-out: KA (half maximal constant), wild-type TynA + A81L FeaR; for response: A81L FeaR
Procedure: as §1

[4] = tested on: G494S TynA with wild-type FeaR; type: cell-based, E. coli MG1655; conditions: for Fmax / Fmin / n (Hill coefficient): G494S TynA + wild-type FeaR, pCX008, pCX010
Procedure: as §1

[5] = tested on: G415H TynA with wild-type FeaR; type: cell-based, E. coli MG1655; conditions: for Fmax / Fmin / n (Hill coefficient): G415H TynA + wild-type FeaR, pCX008, pCX015; for response: G415H
Procedure: as §1

[6] = tested on: wild-type TynA with A81T FeaR; type: cell-based, E. coli MG1655; conditions: 24 h; for effect of the A81T FeaR mutation on the response of the sensor: wild-type TynA, 1 mM, FIG. 21
Procedure: as §1

[7] = tested on: G494S TynA with A81T FeaR; type: cell-based, E. coli MG1655; conditions: for Fmax / Fmin / n (Hill coefficient): G494S TynA + A81T FeaR, pCX008, pCX014; for response: G494S*
Procedure: as §1

[8] = tested on: G494S TynA and A81S FeaR; type: cell-based, E. coli MG1655; conditions: for Fmax / Fmin / n (Hill coefficient): G494S TynA + A81S FeaR, pCX008, pCX032
Procedure: as §1

[9] = tested on: TynA-KP with FeaR-KA I109N; experiment: GFP fluorescence from PtynA-MG with TynA-KP and FeaR-KA I109N; type: cell-based, Klebsiella aerogenes; conditions: for induction of fluorescence: I109N variant, 0.5 mM, 24 h, FIG. 32
Description: FIG. 32. […] Sensor system with PtynA-MG, TynA-KP and FeaR-KA was chosen as the wild type (WT) for further directed evolution. TynA-KP was employed to reduce the possible interference from DA during evolution processes. Values and error bars are the average and standard deviation of biological triplicate, respectively.
FIG. 33A-FIG. 33B. […] The expression of PtynA-MG was regulated by the TynA-KP with FeaR-KA I109N mutant. Points represent experimental data while lines represent the fitted curves. […] Values and error bars are the average and standard deviation of biological triplicate, respectively.

[10] = tested on: wild-type TynA with W110C FeaR; type: cell-based, E. coli MG1655; conditions: W110C FeaR; 24 h; FIG. 28D
Procedure: as §1

[11] = tested on: wild-type TynA with M83Q FeaR; type: cell-based, E. coli MG1655; conditions: M83Q FeaR; 24 h; FIG. 28A
Procedure: as §1

[12] = tested on: wild-type TynA with L108T FeaR; type: cell-based, E. coli MG1655; conditions: L108T FeaR; 24 h; FIG. 28B
Procedure: as §1

[13] = wild-type TynA + A81P FeaR, pCX008, pCX025, FIG. 25A, 5 h
[14] = wild-type TynA + A81P FeaR, pCX008, pCX025, FIG. 25B, 24 h
[15] = wild-type TynA + A81L FeaR, pCX008, pCX024, FIG. 5C, 24 h
[16] = wild-type TynA + A81L FeaR, pCX008, pCX024, FIG. 24, 5 h
[17] = wild-type TynA + A81T FeaR, pCX008, pCX016, FIG. 22A

Compound: NCCc1ccccc1 [Phenylethylamine, phenylethylamine]
- EC50 ([1]; 5 h): 42 µM
- EC50 ([1]; 24 h): 87 µM
- fold induction at 1250 µM [1]: > 1500
- Fmax ([1]; FIG. 3D, 24 h induction): 1430
- Fmin ([1]; FIG. 3D, 24 h induction): 0
- n (Hill coefficient) ([1]; FIG. 3D, 24 h induction): 3.9
- Fmax ([1]; FIG. 14, 5 h induction): 315
- Fmin ([1]; FIG. 14, 5 h induction): 10.4
- n (Hill coefficient) ([1]; FIG. 14, 5 h induction): 2
- EC50 ([2]; 5 h, pCX008, pCX025, FIG. 25A, 5 h): 14 µM
- EC50 ([2]; 24 h, pCX008, pCX025, FIG. 25B, 24 h): 50 µM
- Fmax [2, 13]: 14
- Fmin [2, 13]: 0.4
- n (Hill coefficient) [2, 13]: 8.4
- Fmax [2, 14]: 112
- Fmin [2, 14]: 1.1
- KA (half maximal constant) [2, 14]: 0.052 mM
- n (Hill coefficient) [2, 14]: 20.3
- fold induction ([3]; A81L sensor, FIG. 5C): 580 fold
- EC50 ([3]; 5 h, pCX008, pCX024, FIG. 24, 5 h): 74 µM
- EC50 ([3]; 24 h, pCX008, pCX024, FIG. 5C, 24 h): 140 µM
- Fmax [3, 15]: 585
- Fmin [3, 15]: 4.8
- KA (half maximal constant) [3, 15]: 0.137 mM
- n (Hill coefficient) [3, 15]: 2.7
- Fmax [3, 16]: 289
- Fmin [3, 16]: 5.1
- n (Hill coefficient) [3, 16]: 2.6
- Fmax ([4]; FIG. 18A, 5 h): 18
- Fmin ([4]; FIG. 18A, 5 h): 0.8
- n (Hill coefficient) ([4]; FIG. 18A, 5 h): 36
- Fmax ([4]; FIG. 18B, 22B, 24 h): 4012
- Fmin ([4]; FIG. 18B, 22B, 24 h): 3.4
- n (Hill coefficient) ([4]; FIG. 18B, 22B, 24 h): 1.3
- fold induction ([4]; G494S single mutant sensor): 50 fold
- Fmax ([5]; FIG. 4D, 24 h): 84
- Fmin ([5]; FIG. 4D, 24 h): 0
- n (Hill coefficient) ([5]; FIG. 4D, 24 h): 0.6
- Fmax ([5]; FIG. 17B, 5 h): 118
- Fmin ([5]; FIG. 17B, 5 h): 0
- n (Hill coefficient) ([5]; FIG. 17B, 5 h): 0.4
- Fmax [6, 17]: 1010
- Fmin [6, 17]: 18
- n (Hill coefficient) [6, 17]: 4.3
- effect of the A81T FeaR mutation on the response of the sensor [6]: insignificant impact
- Fmax ([7]; FIG. 4C, 22B, 24 h): 790
- Fmin ([7]; FIG. 4C, 22B, 24 h): 5.4
- n (Hill coefficient) ([7]; FIG. 4C, 22B, 24 h): 1.4
- Fmax ([7]; FIG. 17A, 5 h): 9280
- Fmin ([7]; FIG. 17A, 5 h): 1.1
- n (Hill coefficient) ([7]; FIG. 17A, 5 h): 1.2
- fold induction ([7]; G494S* double mutant sensor): 140 fold
- Fmax ([8]; FIG. 23A, 5 h): 462
- Fmin ([8]; FIG. 23A, 5 h): 3.4
- n (Hill coefficient) ([8]; FIG. 23A, 5 h): 1.2
- Fmax ([8]; FIG. 25B, 22B [sic], 24 h): 475
- Fmin ([8]; FIG. 25B, 22B [sic], 24 h): 5.9
- n (Hill coefficient) ([8]; FIG. 25B, 22B [sic], 24 h): 1.5
- induction of fluorescence [9]: not

Compound: NCCc1c[nH]c2ccccc12 [Tryptamine, tryptamine]
- EC50 ([1]; 5 h): 45 µM
- EC50 ([1]; 24 h): 85 µM
- fold induction at 1250 µM [1]: ~280
- Fmax ([1]; FIG. 3D, 24 h induction): 268
- Fmin ([1]; FIG. 3D, 24 h induction): 1.3
- n (Hill coefficient) ([1]; FIG. 3D, 24 h induction): 4.3
- Fmax ([1]; FIG. 14, 5 h induction): 57
- Fmin ([1]; FIG. 14, 5 h induction): 5.9
- n (Hill coefficient) ([1]; FIG. 14, 5 h induction): 3.1
- response ([2]; A81P FeaR, 5 h and 24 h, FIG. 25A-B): lack of response
- response ([3]; 5 h, FIG. 24): lack of response
- response ([3]; 24 h, FIG. 5C): lack of response
- response ([4]; G494S TynA, wild-type FeaR, 5 h and 24 h, FIG. 18A-B): lack of response
- response ([5]; 5 h, FIG. 17B): lack of response
- response ([5]; 24 h, FIG. 4D): lack of response; also recorded: minimal response
- response [10]: lack of response
- effect of the A81T FeaR mutation on the response of the sensor [6]: significantly reduced
- response [11]: lack of response
- response ([7]; 5 h, FIG. 17A): lack of response
- response ([7]; 24 h, FIG. 4C): lack of response
- response ([8]; G494S TynA and A81S FeaR, 5 h and 24 h, FIG. 23A-B): lack of response
- response [12]: lack of response
- response ([9]; FeaR-KA I109N, 5 h and 24 h, FIG. 33A-B): lack of response
- induction of fluorescence [9]: induction of fluorescence

From patent US20220372585A1, “Sensors for Aromatic Compounds and Methods of Making and Using Same” (Washington University, priority 2021, published 2022)
